Data from article PMC3071374, “High Throughput Screens Yield Small Molecule Inhibitors of Leishmania CRK3:CYC6 Cyclin-Dependent Kinase” (PLoS Neglected Tropical Diseases, 2011).
Read-outs that look alike come from different tables or passages of the source.

Columns and labels:
Leishmania CRK3:CYC6 = Leishmania CRK3:CYC6 (Leishmania major, UniProt O96526); format: biochemical
Method: (§1) Leishmania CRK3:CYC6 protein kinase assays were performed in 96-well microtiter plates in a final volume of 25 µl. Each assay point contained 7.5 ng of co-expressed histidine-tagged CRK3:CYC6 protein kinase complex (hereafter referred to as CRK3:CYC6) diluted in enzyme dilution buffer (EDB) (20 mM Tris-HCl pH 7.2, 0.5 mg ml^−1 BSA, 2.5% glycerol and 0.006% Brij-35). Assays were performed using the assay development buffer (ADB) (20 mM MOPS, pH 7.0, 25 mM β-glycerophosphate, 5 mM EGTA, 1 mM NaVO3, 1 mM DTT and 15 mM MgCl2) supplemented with 100 µM ATP, 0.5 µCi of γ-^32P ATP per reaction and histone H1 as a substrate used at 0.4 mg ml^−1. Two and three-fold titrations were set up to determine the concentration of enzyme to be used per assay point (7.5 ng) and to determine the concentrations of selected inhibitors required for 50% inhibition of Leishmania CRK3:CYC6 protein kinase activity (IC50 values), respectively. For IC50 determinations, assay mixes contained DMSO to a final concentration of 2%. Mammalian protein kinase assays were carried out according to the assay protocols developed at Cyclacel. Assays were carried out for 30 minutes at 30°C before stopping the reaction by the addition of an equal volume (25 µl) of 75 mM orthophosphoric acid. Samples were spotted onto a p81 cellulose filterplate (Nunc) and a vacuum applied. Wells were washed 3×200 µl with 75 mM phosphoric acid and the bottom of the plate sealed. 50 µl of Microscint 40 (Perkin Elmer) was added per well before incorporation of radioactivity was determined on a Topcount microplate scintillation counter.

CDK4:CYCD1 = CDK4:CYCD1 (Homo sapiens, UniProt P11802); test: Mammalian protein kinase assay, CDK4:CYCD1; format: biochemical; conditions: Lexicon azapurine HTS hits
Method: as §1

WT promastigote L. major = test: L. major promastigote growth inhibition assay (resazurin); format: cell-based; conditions: for IC50: 5 days at 25°C, read-out: IC50 against WT promastigote L. major
Method: L. major wild type promastigotes (Friedlin strain: WHO designation MHOM/JL/81/Friedlin) were grown at 25°C in HOMEM medium (Invitrogen cat no. 041-94699111) supplemented with 10% (v/v) heat inactivated foetal calf serum (HIFCS) and 1% (v/v) penicillin/streptomycin antibiotics.
CRK3 inhibitors were diluted into HOMEM medium supplemented with 10% HIFCS at twice the final screening concentration. Five-fold or ten-fold serial dilutions were carried out into HOMEM medium supplemented with 10% HIFCS. 100 µl of each drug concentration were added to a 96 well plate in duplicate. 100 µl of five-fold or ten-fold serial dilutions of 1 mM Pentamidine (Sigma) and an equivalent volume of 100% DMSO were included as positive and negative controls, in duplicate, respectively. L. major promastigote cells were diluted to a cell density of 2×10^6 cells ml^−1 in HOMEM media supplemented with 10% HIFCS and 100 µl added to all wells in 96 well plates. Plates were sealed with parafilm and incubated for 5 days at 25°C. After 5 days, 20 µl of filter sterile resazurin solution (12.5 mg resazurin salt in 100 ml PBS) (Sigma) was added to each of the wells and the plate incubated for a further 24 hours at 25°C. Fluorescence was measured using an Envision plate reader (Perkin Elmer) at 540 nm excitation wavelength and 590 nm emission wavelength.

WT amastigote L. major = test: Intra-macrophage L. major amastigote assay; format: cell-based; conditions: for IC50: read-out: IC50 against WT amastigote L. major
Method: Macrophages were harvested from the peritoneum of Balb/C mice, centrifuged at 1000× g for 10 minutes at 4°C and resuspended in fresh RPMI 1640 media supplemented with 10% HIFCS and 1% (v/v) Gentamicin, as described previously. Macrophages were diluted to a cell density of 5×10^5 cells ml^-1 in RPMI supplemented with 10% HIFCS and 100 μl were added to each well of a 16-well Lab-tek cavity slide (50,000 mφ/well) and incubated at 37°C, 5% CO2 for subsequent experiments. […] Inhibitors were set up in a five-fold dilution series in RPMI 1640 medium supplemented with 10% […] of inhibitor were added to the wells in serial dilution and slides incubated for 72 hours at 37°C with 5% CO2. After 72 hours the medium was removed and replaced with fresh medium containing the same concentrations of inhibitors and incubated for a further 48 hours at 37°C with 5% CO2. At the end of the incubation period, the medium was removed, the slides were washed twice with fresh RPMI 1640 medium supplemented with 10% HIFCS then fixed with 100% methanol and stained with 10% Giemsa's stain for 10 minutes. The percentage of infected macrophages and number of amastigotes per macrophage were determined by light microscopy under oil immersion.

[1] = re-synthesised Lexicon azapurine hits
[2] = Lexicon azapurine HTS hits, maximum concentration tested 10 µM
[3] = Lexicon azapurine HTS hits, infected peritoneal macrophages
[4] = synthesised azapurine derivatives
[5] = synthesised azapurine derivatives, infected peritoneal macrophages

Sequence of Leishmania CRK3:CYC6 (Q4Q4U0 entry or part of it): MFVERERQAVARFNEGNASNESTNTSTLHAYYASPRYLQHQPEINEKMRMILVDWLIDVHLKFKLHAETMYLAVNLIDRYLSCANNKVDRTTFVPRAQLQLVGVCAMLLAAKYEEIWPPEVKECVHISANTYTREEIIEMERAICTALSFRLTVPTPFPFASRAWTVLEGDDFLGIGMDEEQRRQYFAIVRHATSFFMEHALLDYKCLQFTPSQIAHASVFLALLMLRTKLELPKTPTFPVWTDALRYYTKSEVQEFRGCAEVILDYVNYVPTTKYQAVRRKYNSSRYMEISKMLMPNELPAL
Sequence of Leishmania CRK3:CYC6 (O96526 entry or part of it): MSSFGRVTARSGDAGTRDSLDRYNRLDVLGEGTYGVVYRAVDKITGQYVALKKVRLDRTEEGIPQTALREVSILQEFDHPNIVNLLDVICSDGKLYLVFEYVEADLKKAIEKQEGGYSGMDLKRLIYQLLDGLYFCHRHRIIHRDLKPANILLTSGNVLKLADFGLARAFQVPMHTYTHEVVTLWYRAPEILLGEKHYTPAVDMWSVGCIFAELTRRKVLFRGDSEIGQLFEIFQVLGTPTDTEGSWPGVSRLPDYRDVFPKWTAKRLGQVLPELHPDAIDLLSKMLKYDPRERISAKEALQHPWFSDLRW
Sequence of CDK4:CYCD1 (P11802 whole entry): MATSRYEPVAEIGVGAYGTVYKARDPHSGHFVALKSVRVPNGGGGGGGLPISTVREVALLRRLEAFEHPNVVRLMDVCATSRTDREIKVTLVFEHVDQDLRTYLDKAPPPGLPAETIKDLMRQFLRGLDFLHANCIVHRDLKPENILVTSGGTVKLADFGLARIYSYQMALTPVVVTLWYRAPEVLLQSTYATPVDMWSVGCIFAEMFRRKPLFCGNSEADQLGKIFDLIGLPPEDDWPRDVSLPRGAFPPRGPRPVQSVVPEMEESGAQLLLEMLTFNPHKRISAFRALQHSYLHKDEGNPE
Sequence of CDK4:CYCD1 (P24385 whole entry partner): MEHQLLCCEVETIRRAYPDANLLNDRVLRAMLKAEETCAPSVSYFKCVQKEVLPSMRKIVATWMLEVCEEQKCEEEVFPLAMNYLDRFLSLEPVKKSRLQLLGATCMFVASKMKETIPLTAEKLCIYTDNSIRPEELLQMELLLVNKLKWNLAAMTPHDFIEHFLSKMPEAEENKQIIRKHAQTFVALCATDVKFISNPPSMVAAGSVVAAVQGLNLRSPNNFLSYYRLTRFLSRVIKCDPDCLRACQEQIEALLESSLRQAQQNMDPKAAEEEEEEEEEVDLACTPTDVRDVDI

| SMILES | IC50 (Leishmania CRK3:CYC6; Lexicon azapurine HTS hits) [µM] | IC50 (CDK4:CYCD1) [µM] | IC50 (WT promastigote L. major; [2]) [µM] | IC50 (WT amastigote L. major; [3]) [µM] | other results |
| --- | --- | --- | --- | --- | --- |
| COc1ccc(-n2nnc3c(N4CCCC(O)C4)nc(CC4CCCCC4)nc32)cc1 (racemic) [Compound 5] | 5.3 | 9.7 | 8.6 | > 50 | IC50 (Leishmania CRK3:CYC6; [1]): 4.2 µM; activity towards the amastigote life cycle stage (in words) (WT amastigote L. major): no activity |
| COc1ccc(Cn2nnc3c(N4CCCC(O)C4)nc(CC4CCCCC4)nc32)cc1 (racemic) [Compound 19] | – | – | – | – | IC50 (Leishmania CRK3:CYC6; [4]): > 50 µM; activity towards promastigote L. major (in words) (WT promastigote L. major): showed a range of activity; IC50 (WT promastigote L. major; [4]): 5 to 50 µM |
| COc1ccc(-n2nnc3c(N4CCCC(O)C4)nc(Cc4ccccc4)nc32)cc1 (racemic) [Compound 29] | – | – | – | – | inhibition of CRK3/CYC6 in vitro (in words) (Leishmania CRK3:CYC6): did not inhibit; IC50 (Leishmania CRK3:CYC6; [4]): > 100 µM; activity towards promastigote L. major (in words) (WT promastigote L. major): showed a range of activity; inhibition of parasite growth in culture (in words) (WT promastigote L. major; promastigotes and intra-macrophage amastigotes in culture): inhibited parasite growth in culture; IC50 (WT promastigote L. major; [4]): 38.7 µM; activity against amastigotes (in words) (WT amastigote L. major; [5]): Activity observed at 25 μM |
| OC1CCCN(c2nc(CC3CCCCC3)nc3c2nnn3Cc2ccc(F)cc2)C1 (racemic) [Compound 33] | – | – | – | – | IC50 (Leishmania CRK3:CYC6; [4]): 47.6 µM; IC50 (WT promastigote L. major; [4]): > 50 µM; IC50 (WT amastigote L. major; [5]): > 50 µM |
| COc1ccc(-n2nnc3c(N(C)CCN(C)C4c5ccccc5CC4O)nc(CC4CCCCC4)nc32)cc1 (stereo not drawn) [Compound 1] | 2.6 | 12.5 | > 10 | > 50 | – |
| CCCN(c1nc(CC2CCCCC2)nc2c1nnn2-c1ccc(OC)cc1)C1CCCC1N(C)C (stereo not drawn) [Compound 2] | 3.4 | 5.6 | > 10 | 38.4 | activity towards promastigote L. major (in words) (WT promastigote L. major): did not have activity |
| COc1ccc(-n2nnc3c(NCC(C)O)nc(CC4CCCCC4)nc32)cc1 (stereo not drawn) [Compound 3] | 4.4 | 21.9 | > 10 | > 50 | IC50 (Leishmania CRK3:CYC6; [1]): 24.2 µM |
| COc1ccc(-n2nnc3c(N(C)C4COCC4N(C)C)nc(CC4CCCCC4)nc32)cc1 (stereo not drawn) [Compound 4] | 4.4 | 10.3 | > 10 | > 50 | – |
| COc1ccc(-n2nnc3c(N4CCCC(CO)C4)nc(CC4CCCCC4)nc32)cc1 (stereo not drawn) [Compound 6] | 6.9 | 9.2 | > 10 | > 50 | IC50 (Leishmania CRK3:CYC6; [1]): 4.4 µM |
| COc1ccc(-n2nnc3c(N(C)C(CN4CCCCC4)c4ccccc4)nc(CC4CCCCC4)nc32)cc1 (stereo not drawn) [Compound 7] | 7.8 | 19.5 | – | – | – |
| CCC(CC)Nc1nc(CC2CCCCC2)nc2c1nnn2-c1ccc(OC)cc1 [Compound 8] | 8.1 | 26.9 | – | – | – |
| COc1ccc(-n2nnc3c(NC(C)C)nc(CC4CCCCC4)nc32)cc1 [Compound 9] | 8.8 | 19.8 | – | – | IC50 (Leishmania CRK3:CYC6; [1]): 37.9 µM |
| COc1ccc(-n2nnc3c(NC(Cc4ccccc4)Cn4nc(C)cc4C)nc(CC4CCCCC4)nc32)cc1 (stereo not drawn) [Compound 10] | 10.1 | 7.3 | – | – | – |
| COc1ccc(-n2nnc3c(N4CC(N5CCN(c6ccccn6)CC5)C4)nc(CC4CCCCC4)nc32)cc1 [Compound 11] | 10.3 | 6.7 | – | – | – |
| COc1ccc(-n2nnc3c(NC(CO)CC(C)C)nc(CC4CCCCC4)nc32)cc1 (stereo not drawn) [Compound 12] | 10.7 | 4.6 | – | – | – |
